Experimental data taken from PubChem BioAssay (NCI).
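Results reflect a 48-hour exposure of cells in 96-well plates to compound at five concentrations. The concentration for full growth arrest is given as TGI.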

How the values were obtained:
Assay in all cases: DTP human tumour cell line panel, 48 h
[1] = system: PC-3 prostate
[2] = system: SF-268 CNS
[3] = system: SR leukemia
[4] = system: A549 NSCLC
[5] = system: NCI/ADR-RES ovarian
[6] = system: NCI-H226 lung
[7] = system: M14 melanoma
[8] = system: HCT-116 colon
[9] = system: SK-OV-3 ovarian
[10] = system: COLO 205 colon
[11] = system: RPMI-8226 leukemia
[12] = system: DU-145 prostate
[13] = system: RXF 393 renal
[14] = system: 786-0 renal
[15] = system: HCC-2998 colon
[16] = system: BT-549 breast
[17] = system: CAKI-1 renal
[18] = system: LOX IMVI melanoma
[19] = system: KM12 colon
[20] = system: MDA-N
[21] = system: OVCAR-4 ovarian
[22] = system: SK-MEL-28 melanoma
[23] = system: SNB-19 CNS
[24] = system: HT29 colon
[25] = system: UACC-62 melanoma
[26] = system: T-47D breast
[27] = system: SF-539 CNS
[28] = system: HOP-62 NSCLC
[29] = system: HL-60(TB) leukemia
[30] = system: SNB-75 CNS
[31] = system: HS 578T breast
[32] = system: CCRF-CEM leukemia
[33] = system: NCI-H522 lung
[34] = system: EKVX NSCLC
[35] = system: MALME-3M melanoma
[36] = system: NCI-H23 lung
[37] = system: HCT-15 colon
[38] = system: HOP-92 NSCLC
[39] = system: NCI-H460 lung
[40] = system: MDA-MB-435
[41] = system: OVCAR-3 ovarian
[42] = system: IGROV1 ovarian
[43] = system: UACC-257 melanoma
[44] = system: OVCAR-8 ovarian
[45] = system: ACHN renal
[46] = system: SF-295 CNS
[47] = system: MOLT-4 leukemia
[48] = system: SN12C renal
[49] = system: OVCAR-5 ovarian
[50] = system: MDA-MB-231 breast
[51] = system: A498 renal
[52] = system: K-562 leukemia
[53] = system: MCF7 breast
[54] = system: SW-620 colon
[55] = system: U251 CNS
[56] = system: TK-10 renal
[57] = system: SK-MEL-2 melanoma
[58] = system: SK-MEL-5 melanoma
[59] = system: UO-31 renal

SMILES: C[C@]12CC[C@H](O)CC1=CC[C@@H]1[C@@H]2CC[C@]2(C)c3nc(Cl)ccc3C[C@@H]12
- TGI [1]: > 100 µM
- TGI [2]: > 75.7 µM
- TGI [3]: > 100 µM
- TGI [4]: 96.9 µM
- TGI [5]: > 100 µM
- TGI [6]: > 100 µM
- TGI [7]: > 100 µM
- TGI [8]: > 100 µM
- TGI [9]: 99.2 µM
- TGI [10]: > 100 µM
- TGI [11]: > 100 µM
- TGI [12]: > 100 µM
- TGI [13]: > 100 µM
- TGI [14]: > 100 µM
- TGI [15]: > 100 µM
- TGI [16]: > 100 µM
- TGI [17]: > 100 µM
- TGI [18]: > 100 µM
- TGI [19]: > 100 µM
- TGI [20]: > 100 µM
- TGI [21]: > 100 µM
- TGI [22]: > 100 µM
- TGI [23]: > 100 µM
- TGI [24]: > 100 µM
- TGI [25]: > 100 µM
- TGI [26]: > 100 µM
- TGI [27]: 37.2 µM
- TGI [28]: > 67.6 µM
- TGI [29]: > 100 µM
- TGI [30]: 46.8 µM
- TGI [31]: > 100 µM
- TGI [32]: > 50.4 µM
- TGI [33]: > 100 µM
- TGI [34]: > 71.6 µM
- TGI [35]: > 100 µM
- TGI [36]: > 100 µM
- TGI [37]: > 81.3 µM
- TGI [38]: > 100 µM
- TGI [39]: > 100 µM
- TGI [40]: > 100 µM
- TGI [41]: > 73.2 µM
- TGI [42]: > 100 µM
- TGI [43]: > 100 µM
- TGI [44]: > 100 µM
- TGI [45]: > 100 µM
- TGI [46]: > 100 µM
- TGI [47]: > 100 µM
- TGI [48]: > 94.8 µM
- TGI [49]: > 100 µM
- TGI [50]: > 100 µM
- TGI [51]: > 100 µM
- TGI [52]: > 100 µM
- TGI [53]: > 100 µM
- TGI [54]: > 100 µM
- TGI [55]: > 100 µM
- TGI [56]: > 100 µM
- TGI [57]: > 100 µM
- TGI [58]: > 100 µM

SMILES: Cc1cc2c(cc1-c1cc3c(cc1C)C(C(C)C)=C(O)C(=O)/C3=C\Nc1c(C)n(C)n(-c3ccccc3)c1=O)/C(=C/Nc1c(C)n(C)n(-c3ccccc3)c1=O)C(=O)C(O)=C2C(C)C
- TGI [1]: > 100 µM
- TGI [2]: > 100 µM
- TGI [3]: > 100 µM
- TGI [4]: > 100 µM
- TGI [5]: > 100 µM
- TGI [6]: > 100 µM
- TGI [7]: > 100 µM
- TGI [8]: > 100 µM
- TGI [9]: > 100 µM
- TGI [10]: > 100 µM
- TGI [11]: > 100 µM
- TGI [12]: > 100 µM
- TGI [13]: > 100 µM
- TGI [14]: > 100 µM
- TGI [59]: > 100 µM
- TGI [16]: > 100 µM
- TGI [17]: > 100 µM
- TGI [19]: > 100 µM
- TGI [20]: > 100 µM
- TGI [21]: > 100 µM
- TGI [22]: > 100 µM
- TGI [23]: > 100 µM
- TGI [24]: > 100 µM
- TGI [25]: > 100 µM
- TGI [26]: > 100 µM
- TGI [27]: > 100 µM
- TGI [28]: > 100 µM
- TGI [29]: > 100 µM
- TGI [30]: > 100 µM
- TGI [31]: > 100 µM
- TGI [32]: > 100 µM
- TGI [33]: > 100 µM
- TGI [34]: > 100 µM
- TGI [35]: > 100 µM
- TGI [36]: > 100 µM
- TGI [37]: > 100 µM
- TGI [38]: > 100 µM
- TGI [39]: > 100 µM
- TGI [40]: > 100 µM
- TGI [41]: > 100 µM
- TGI [42]: > 100 µM
- TGI [43]: > 100 µM
- TGI [44]: > 100 µM
- TGI [45]: > 100 µM
- TGI [46]: > 100 µM
- TGI [47]: > 100 µM
- TGI [48]: > 100 µM
- TGI [49]: > 100 µM
- TGI [50]: > 100 µM
- TGI [51]: > 100 µM
- TGI [52]: > 100 µM
- TGI [53]: > 100 µM
- TGI [54]: > 100 µM
- TGI [55]: > 100 µM
- TGI [57]: > 100 µM
- TGI [58]: > 100 µM

SMILES: COc1cc(C2c3cc4c(cc3OC3(OC)COC(=O)C23)OCO4)cc(OC)c1OC (stereo not given)
- TGI [1]: > 44.9 µM
- TGI [2]: > 85.6 µM
- TGI [3]: 4.8 µM
- TGI [4]: > 37.8 µM
- TGI [5]: 4.39 µM
- TGI [6]: 8.16 µM
- TGI [7]: 8.43 µM
- TGI [8]: 7 µM
- TGI [9]: > 100 µM
- TGI [10]: 0.64 µM
- TGI [12]: 6.51 µM
- TGI [13]: 11.7 µM
- TGI [14]: > 27.1 µM
- TGI [15]: 14.9 µM
- TGI [59]: > 100 µM
- TGI [16]: > 100 µM
- TGI [17]: > 90.2 µM
- TGI [18]: 23.4 µM
- TGI [19]: 7.68 µM
- TGI [20]: 0.319 µM
- TGI [21]: > 100 µM
- TGI [22]: > 100 µM
- TGI [23]: > 26.6 µM
- TGI [24]: 0.804 µM
- TGI [25]: > 20.5 µM
- TGI [26]: > 100 µM
- TGI [27]: 0.697 µM
- TGI [28]: > 100 µM
- TGI [29]: 13.6 µM
- TGI [30]: > 100 µM
- TGI [31]: > 100 µM
- TGI [32]: 3.05 µM
- TGI [33]: 3.19 µM
- TGI [34]: > 72.1 µM
- TGI [35]: > 100 µM
- TGI [36]: > 100 µM
- TGI [37]: 20.1 µM
- TGI [38]: > 100 µM
- TGI [39]: > 67.9 µM
- TGI [40]: 0.68 µM
- TGI [41]: 2.45 µM
- TGI [42]: > 100 µM
- TGI [43]: > 100 µM
- TGI [44]: 6.12 µM
- TGI [45]: > 100 µM
- TGI [46]: 0.479 µM
- TGI [47]: 12.2 µM
- TGI [48]: > 80.5 µM
- TGI [49]: > 89.2 µM
- TGI [50]: 2.08 µM
- TGI [51]: 2.38 µM
- TGI [52]: 11 µM
- TGI [53]: > 56.8 µM
- TGI [54]: > 100 µM
- TGI [55]: > 66.3 µM
- TGI [56]: > 100 µM
- TGI [57]: > 40.9 µM
- TGI [58]: 7.46 µM

SMILES: O=C1c2ccccc2-c2nnc(-c3ccc(Cl)cc3)cc21
- TGI [1]: > 10 µM
- TGI [2]: > 10 µM
- TGI [3]: > 10 µM
- TGI [4]: > 10 µM
- TGI [5]: > 10 µM
- TGI [6]: > 10 µM
- TGI [7]: > 10 µM
- TGI [8]: > 10 µM
- TGI [9]: > 10 µM
- TGI [10]: > 10 µM
- TGI [11]: > 10 µM
- TGI [12]: > 10 µM
- TGI [13]: > 10 µM
- TGI [14]: > 10 µM
- TGI [15]: > 10 µM
- TGI [59]: > 10 µM
- TGI [16]: > 10 µM
- TGI [17]: > 10 µM
- TGI [18]: > 10 µM
- TGI [19]: > 10 µM
- TGI [20]: > 10 µM
- TGI [21]: > 10 µM
- TGI [22]: > 10 µM
- TGI [23]: > 10 µM
- TGI [24]: > 10 µM
- TGI [25]: > 10 µM
- TGI [26]: > 10 µM
- TGI [27]: > 10 µM
- TGI [28]: > 10 µM
- TGI [29]: > 10 µM
- TGI [30]: > 10 µM
- TGI [31]: > 10 µM
- TGI [32]: > 10 µM
- TGI [33]: > 10 µM
- TGI [34]: > 10 µM
- TGI [35]: > 10 µM
- TGI [36]: > 10 µM
- TGI [37]: > 10 µM
- TGI [38]: > 10 µM
- TGI [39]: > 10 µM
- TGI [40]: > 10 µM
- TGI [41]: > 10 µM
- TGI [42]: > 10 µM
- TGI [43]: > 10 µM
- TGI [44]: > 10 µM
- TGI [45]: > 10 µM
- TGI [46]: > 10 µM
- TGI [47]: > 10 µM
- TGI [48]: > 10 µM
- TGI [49]: > 10 µM
- TGI [50]: > 10 µM
- TGI [51]: > 10 µM
- TGI [52]: > 10 µM
- TGI [53]: > 10 µM
- TGI [54]: > 10 µM
- TGI [55]: > 10 µM
- TGI [57]: > 10 µM
- TGI [58]: > 10 µM
